Measured values taken from paper PMC4710668, “Bioactivation of food genotoxicants 5-hydroxymethylfurfural and furfuryl alcohol by sulfotransferases from human, mouse and rat: a comparative study” (Archives of Toxicology, 2014).

Experiments:
[1] = system: mSult2a3; test: HMF sulfoconjugation assay; format: biochemical, mouse
Procedure: (§1) Cytosolic fractions containing individual SULT forms were prepared from transgenic S. typhimurium TA1538. Table S1 in the Supplementary Material provides a summary of the thirty SULTs used in the current study together with references describing the cloning of the respective S. typhimurium TA1538 strains. The expressed SULT forms are denoted with the prefixes h, m and r for human, mouse and rat enzymes, respectively. Bacteria were grown in Luria Broth medium containing ampicillin (100 µg/ml) by stirring for 8 h at 200 revolutions/min at 37 °C. The bacterial suspensions were centrifuged at 5,000 g for 10 min. The sediments were washed twice with 25 ml of 10 mM potassium phosphate buffer (pH 7.4)/50 mM potassium chloride (KCP buffer) and centrifuged again. The pellets were taken up in 800 µl KCP buffer and sonicated thrice for 15 s with 30 s pauses in between. The soluble fraction was attained by centrifuging for 1 h at 100,000 g. The supernatants (in the following termed cytosolic preparations) were frozen at −80 °C. The protein concentrations were determined according to a bicinchoninic acid (BCA) assay protocol. The SULT concentrations in the cytosolic preparations were estimated after electrophoretic separation and immunodetection using inclusion bodies of different SULT forms as standards (Teubner et al. [2007]). The preparation of SULT inclusion bodies and the immunodetection of SULTs is described in the Supplementary Material, which also contains a representative immunoblot of different amounts of rSult1a1standard and a cytosolic preparation of S. typhimurium expressing rSult1a1 (Fig. S1).
The reactions were conducted in mixtures of 100 µl containing 25–200 µg protein, 50 mM potassium phosphate buffer (pH 7.4), 5 mM MgCl2, 50 µM PAPS and different concentrations of HMF at 37 °C. Preliminary experiments ensured that measurements were recorded under ‘linear’ conditions, i.e., doubling of protein concentration or incubation time was doubling the amount of sulfate ester formed. The reactions were stopped after 30 min by adding 300 µl ice-cold 2-propanol, mixed and centrifuged at 15,000 g for 10 min.
SMF concentrations of the clear supernatants were analyzed by UPLC-MS/MS. The protocol was adapted from the quantification of SMF in plasma samples of HMF-treated mice (Monien et al. [2009]). In short, the supernatants were analyzed using a UPLC system (Waters) connected to a Quattro Premier XE tandem quadrupole mass spectrometer (Waters) using the negative electrospray ionization mode. Samples of 4 µl were injected into a HSS T3 column (1.8 µm, 2.1 × 100 mm; Waters) and eluted with an isocratic flow of 0.35 ml/min 10 mM ammonium acetate/methanol (95:5). The fragmentation reactions of SMF yielding two principal ions, the sulfate ion radical (m/z = 204.9 → 96.0) and the protonated sulfonate ion (m/z = 204.9 → 81.0) were monitored. The tune parameters were as follows: temperature of the electrospray source 120 °C; desolvation temperature 475 °C; desolvation gas nitrogen (800 l/h); cone gas nitrogen (100 l/h); collision gas argon (indicated cell pressure ~5 × 10^−3 mbar). For the fragmentation of SMF, collision energies were 20 and 23 eV for the transitions m/z = 204.9 → 81.0 and m/z = 204.9 → 96.0, respectively. The dwell time was set to 100 ms, and capillary voltage was set to 0.35 kV. The cone and RF1 lens voltages were 32 and 0.2 V, respectively. SMF was quantified using an external calibration line that was linear in the concentration range of 1.0 nM (4 fmol/injection) to 2,500 (10 pmol/injection) SMF (r ^2 ≥ 0.99). Data acquisition and handling were performed with MassLynx 4.1 software (Waters). The limit of detection (LOD) for this technique of 2.5 nM SMF has been reported (Monien et al. [2009]). In the current study, this corresponds to 10 fmol SMF per injection or a reaction rate of 0.5 pmol SMF/mg/min.

[2] = system: mSult2a3; test: FFA sulfoconjugation assay (N6-MF-A formation with adenosine as scavenger); format: biochemical, mouse
Procedure: as §1
(§2) The reaction mixtures were prepared as described for HMF. In addition, they contained 10 mM adenosine as a nucleophilic scavenger. Following incubation for 20 min at 37 °C, sulfoconjugation reactions were stopped by adding 100 µl cold methanol containing 175 fmol of [^15N5]N ^6-MF-A as the internal standard, mixed and centrifuged at 15,000 g for 10 min. The clear supernatants were subjected to UPLC-MS/MS analyses. Incubations were performed as quadruplicates. At higher concentrations, FFA reacts spontaneously with adenosine at low, but detectable, levels. To correct for the SULT-independent adduct formation, mixtures with SULT-deficient cytosols were carried along simultaneously in duplicate. Controls were subtracted from the experimental samples.
(§3) The ribonucleoside adduct N ^6-((furan-2-yl)methyl)-adenosine (N ^6-MF-A) was analyzed by isotope-dilution UPLC-MS/MS with the same system described above using a HSS T3 column (1.8 µm, 2.1 × 100 mm, Waters). Samples of 8 µl were eluted with 10 mM ammonium bicarbonate buffer, pH 8.0 (A) and methanol (B) using an 6-min gradient from 98 % solvent A to 15 % solvent A at 0.35 ml/min flow rate (Yin et al. [2013]). The electrospray interface of the mass spectrometer operated in the positive ion mode. The fragmentations of N ^6-MF-A into the aglycone cation [N ^6-((furan-2-yl)methyl)-adenine-H]^+ (m/z = 348.1 → 216.1), the cleavage of the 2-methylfuranyl cation (m/z = 348.1 → 81.0) and the release of [N ^6-methyl-adenine-H]^+ (m/z = 348.1 → 148.0) were monitored together with the corresponding fragmentations of the isotope-labeled internal standard [^15N5]N ^6-MF-A for the formation of the aglycone (m/z = 353.1 → 221.1), the 2-methylfuran cation (m/z = 353.1 → 81.0) and ^15N5-labeled N ^6-methyl-adenine (m/z = 353.1 → 153.0). The N ^6-MF-A content of the incubation mixture was calculated from the ratio of peak areas resulting from the total ion current of all three MRM signals of the analyte. For the fragmentation of N ^6-MF-A ([^15N5]N ^6-MF-A), collision energies were 20, 25 and 35 eV for the transitions m/z = 348.1 → 216.1 (m/z = 353.1 → 221.1), m/z = 348.1 → 148.0 (m/z = 353.1 → 153.0) and m/z = 348.1 → 81.0 (m/z = 353.1 → 81.0), respectively. […]

[3] = system: mSult5a1; test: as above; format: biochemical, mouse
Procedure: as §1, §2, §3

[4] = system: rSult2a4; test: as above; format: biochemical, rat
Procedure: as §1, with “The SULT concentrations in the cytosolic preparations were estimated after electrophoretic separation and immunodetection using inclusion bodies of different SULT forms as standards (Teubner et al. [2007]). The preparation of SULT inclusion bodies and the immunodetection of SULTs is described in the Supplementary Material, which also contains a representative immunoblot of different amounts of rSult1a1standard and a cytosolic preparation of S. typhimurium expressing rSult1a1 (Fig. S1).” left out
The ribonucleoside adduct N ^6-((furan-2-yl)methyl)-adenosine (N ^6-MF-A) was analyzed by isotope-dilution UPLC-MS/MS with the same system described above using a HSS T3 column (1.8 µm, 2.1 × 100 mm, Waters). […] The fragmentations of N ^6-MF-A into the aglycone cation [N ^6-((furan-2-yl)methyl)-adenine-H]^+ (m/z = 348.1 → 216.1), the cleavage of the 2-methylfuranyl cation (m/z = 348.1 → 81.0) and the release of [N ^6-methyl-adenine-H]^+ (m/z = 348.1 → 148.0) were monitored together with the corresponding fragmentations of the isotope-labeled internal standard [^15N5]N ^6-MF-A for the formation of the aglycone (m/z = 353.1 → 221.1), the 2-methylfuran cation (m/z = 353.1 → 81.0) and ^15N5-labeled N ^6-methyl-adenine (m/z = 353.1 → 153.0). The N ^6-MF-A content of the incubation mixture was calculated from the ratio of peak areas resulting from the total ion current of all three MRM signals of the analyte. […]

| Compound | Rate of sulfoconjugation ([1]; 0.1 mM HMF) [pmol/mg/min] | Rate of sulfoconjugation ([1]; 1 mM HMF) [pmol/mg/min] | Rate of sulfoconjugation ([1]; 10 mM HMF) [pmol/mg/min] | Rate of sulfoconjugation ([1]; 100 mM HMF) [pmol/mg/min] | Rate of N6-MF-A formation ([2]; 0.1 mM FFA) [fmol N ^6-MF-A/mg/min] | Rate of N6-MF-A formation ([2]; 1 mM FFA) [fmol N ^6-MF-A/mg/min] | Rate of N6-MF-A formation ([2]; 10 mM FFA) [fmol N ^6-MF-A/mg/min] | Rate of N6-MF-A formation ([3]; 0.1 mM FFA) [fmol N ^6-MF-A/mg/min] | Rate of N6-MF-A formation ([3]; 1 mM FFA) [fmol N ^6-MF-A/mg/min] | Rate of N6-MF-A formation ([3]; 10 mM FFA) [fmol N ^6-MF-A/mg/min] | Rate of N6-MF-A formation ([4]; 0.1 mM FFA) [fmol N ^6-MF-A/mg/min] | Rate of N6-MF-A formation ([4]; 1 mM FFA) [fmol N ^6-MF-A/mg/min] | Rate of N6-MF-A formation ([4]; 10 mM FFA) [fmol N ^6-MF-A/mg/min] |
| --- | --- | --- | --- | --- | --- | --- | --- | --- | --- | --- | --- | --- | --- |
| O=Cc1ccc(CO)o1 [HMF, 5-Hydroxymethylfurfural] | <0.5 | <0.5 | <0.5 | <0.5 |  |  |  |  |  |  |  |  |  |
| OCc1ccco1 [FFA, furfuryl alcohol] |  |  |  |  | <18 | <20 | <44 | <18 | <20 | <44 | <18 | <20 | <44 |
